Experimental findings from ChEMBL document CHEMBL5113375, “Development of Mcl-1 inhibitors for cancer therapy” (Eur J Med Chem, 2021) are described below.

The nature of test [1]: Inhibition of Mcl-1 (172 - 327 residues)/Noxa (unknown origin) by fluorescence polarization assay. Also noted: species or system Homo sapiens.
The target in test [2] is Induced myeloid leukemia cell differentiation protein Mcl-1 (Homo sapiens, UniProt Q07820). Description: Binding affinity to Mcl-1 (unknown origin) assessed as inhibition constant by fluorescence polarization assay. Background: Fluorescence polarisation rises when a labelled molecule tumbles more slowly, as on binding a larger partner.
Chain of Induced myeloid leukemia cell differentiation protein Mcl-1 (Q07820 whole entry): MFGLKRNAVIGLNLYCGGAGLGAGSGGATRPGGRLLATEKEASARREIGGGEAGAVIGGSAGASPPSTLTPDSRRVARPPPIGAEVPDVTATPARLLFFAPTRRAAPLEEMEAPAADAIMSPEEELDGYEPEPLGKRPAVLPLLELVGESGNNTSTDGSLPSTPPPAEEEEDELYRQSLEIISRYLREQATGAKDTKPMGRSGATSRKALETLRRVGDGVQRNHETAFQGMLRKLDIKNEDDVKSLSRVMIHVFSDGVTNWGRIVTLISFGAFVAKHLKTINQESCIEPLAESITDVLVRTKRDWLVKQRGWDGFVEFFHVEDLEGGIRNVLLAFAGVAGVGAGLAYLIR
Test [3] is described as follows: Cytotoxicity against human MOLP8 cells by caspase-3/7 activation. It counts as functional, cell-based. As to conditions: MOLP-8.
The target of test [4] is BCL2/BID (Homo sapiens, UniProt P10415). Description: Binding affinity to Bcl-2 /Bid (unknown origin) assessed as inhibition constant by fluorescence polarization assay. It is filed as protein assay.
Chain of BCL2/BID (P10415 whole entry, the tested form may be a part): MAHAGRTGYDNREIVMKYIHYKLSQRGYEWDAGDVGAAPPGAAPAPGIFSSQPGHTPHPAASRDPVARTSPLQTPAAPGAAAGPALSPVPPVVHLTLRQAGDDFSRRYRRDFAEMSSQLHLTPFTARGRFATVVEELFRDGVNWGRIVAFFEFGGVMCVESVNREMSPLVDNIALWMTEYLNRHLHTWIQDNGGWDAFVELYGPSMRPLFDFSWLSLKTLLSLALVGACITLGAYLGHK
Chain of BCL2/BID (P55957 whole entry, further chain, the tested form may be a part): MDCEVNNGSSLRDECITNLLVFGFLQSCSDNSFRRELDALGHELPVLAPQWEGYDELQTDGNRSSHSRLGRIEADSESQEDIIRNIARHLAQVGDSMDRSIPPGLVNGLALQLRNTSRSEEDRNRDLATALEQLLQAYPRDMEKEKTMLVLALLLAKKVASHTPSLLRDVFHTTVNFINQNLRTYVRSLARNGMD
Test [5] has as its target Induced myeloid leukemia cell differentiation protein Mcl-1/BH3-interacting domain death agonist (Homo sapiens, UniProt Q07820). Description: Binding affinity to Mcl-1/Bid (unknown origin) assessed as inhibition constant by fluorescence polarization assay. It is filed as protein assay.
Test [6] concerns the target MCL1-BAK1 complex (Homo sapiens, UniProt Q07820). Description: Binding affinity to Mcl-1/Bak (unknown origin) assessed as inhibition constant by fluorescence polarization assay. It is filed as protein-complex assay.
Test [7] deals with Bcl-xL/Bcl-2-like protein 11 (Homo sapiens, UniProt Q07817). Description: Binding affinity to Bcl-xL/Bim (unknown origin) assessed as inhibition constant by fluorescence polarization assay. It counts as protein assay.
Chain of Bcl-xL/Bcl-2-like protein 11 (Q07817 whole entry): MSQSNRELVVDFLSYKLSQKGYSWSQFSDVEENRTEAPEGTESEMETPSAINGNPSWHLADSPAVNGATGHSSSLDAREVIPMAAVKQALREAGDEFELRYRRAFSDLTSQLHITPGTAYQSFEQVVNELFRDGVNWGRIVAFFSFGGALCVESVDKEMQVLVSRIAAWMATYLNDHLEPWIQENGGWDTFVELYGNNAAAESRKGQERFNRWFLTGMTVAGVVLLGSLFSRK
Chain of Bcl-xL/Bcl-2-like protein 11 (O43521 whole entry, further chain): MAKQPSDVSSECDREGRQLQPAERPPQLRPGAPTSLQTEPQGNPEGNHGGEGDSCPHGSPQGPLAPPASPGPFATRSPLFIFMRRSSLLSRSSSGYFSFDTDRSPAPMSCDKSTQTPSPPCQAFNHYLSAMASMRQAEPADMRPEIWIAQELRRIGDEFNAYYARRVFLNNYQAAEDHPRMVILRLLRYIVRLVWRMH
The target of test [8] is Induced myeloid leukemia cell differentiation protein Mcl-1/Bcl-2-like protein 11 (Homo sapiens, UniProt Q07820). Description: Inhibition of Mcl-1/Bim (unknown origin) by ELISA method. It counts as protein assay.
Chain of Induced myeloid leukemia cell differentiation protein Mcl-1/Bcl-2-like protein 11 (Q07820 whole entry): as the sequence (Q07820 whole entry) above
Chain of Induced myeloid leukemia cell differentiation protein Mcl-1/Bcl-2-like protein 11 (O43521 whole entry, further chain): as the sequence (O43521 whole entry, further chain) above
Test [9] addresses BCL2/BCL2L11 (Homo sapiens, UniProt P10415). Description: Inhibition of Bcl-2/Bim (unknown origin) by ELISA method. It is filed as protein assay.

Chain of Induced myeloid leukemia cell differentiation protein Mcl-1/BH3-interacting domain death agonist (Q07820 whole entry, the tested form may be a part): as the sequence (Q07820 whole entry) above
Chain of Induced myeloid leukemia cell differentiation protein Mcl-1/BH3-interacting domain death agonist (P55957 whole entry, further chain, the tested form may be a part): as the sequence (P55957 whole entry, further chain, the tested form may be a part) above
Chain of MCL1-BAK1 complex (Q07820 whole entry): as the sequence (Q07820 whole entry) above
Chain of MCL1-BAK1 complex (Q16611 whole entry, further chain): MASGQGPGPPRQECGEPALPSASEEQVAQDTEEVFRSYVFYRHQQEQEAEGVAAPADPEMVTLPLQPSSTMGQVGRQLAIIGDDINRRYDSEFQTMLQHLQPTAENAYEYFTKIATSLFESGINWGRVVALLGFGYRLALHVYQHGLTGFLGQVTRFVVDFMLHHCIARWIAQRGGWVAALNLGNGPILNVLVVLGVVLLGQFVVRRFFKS
Chain of BCL2/BCL2L11 (P10415 whole entry): as the sequence (P10415 whole entry, the tested form may be a part) above
Chain of BCL2/BCL2L11 (O43521 whole entry, further chain): as the sequence (O43521 whole entry, further chain) above

Turning to `Cc1ccc(-c2ccc(C(=O)O)c(NS(=O)(=O)c3ccc(Oc4ccccc4)cc3)c2)c2ccccc12`, the IC50 (as a rule, the midpoint of a concentration-inhibition curve) in test [1] turned out to be 500 nM.

Regarding `Cc1ccc(-c2ccc(C(=O)O)c(NS(=O)(=O)c3ccc(OCCCN4CCOCC4)cc3)c2)c2ccccc12`, in test [1], the IC50 was determined as 60 nM. As for `Cc1ccc(-c2ccc(C(=O)O)c(NS(=O)(=O)c3ccc(OCCn4cccn4)cc3)c2)c2ccccc12`, the midpoint of inhibition in test [1], the IC50, lay at 30 nM. Still for that read-out and setting: to `Cc1ccc(-c2ccc(C(=O)O)c(NS(=O)(=O)c3ccccc3)c2)c2ccccc12` belongs 400 nM. Turning to `CCOC(=O)C1=C(C)N=c2s/c(=C\c3cn(Cc4ccc(-c5ccccc5)cc4)c4ccccc34)c(=O)n2C1c1ccccc1` (centres undefined), the Ki (usually the equilibrium dissociation constant of an inhibitor or competing ligand from its target) in test [2] stood at 200 nM. Molecule `CCc1nn(C)c(CC)c1-c1cccc2c(CCCOc3cccc4ccccc34)c(C(=O)O)n(CCN3CCOCC3)c12` showed a half-maximal inhibitory concentration (IC50) in [3] of 350 nM. `CC(=O)c1cc(OCc2nn(C)c(C)c2-c2cccc3c(CCCOc4cccc5ccccc45)c(C(=O)O)[nH]c23)ccc1B(O)O`: the IC50 in [3] was found to be 170 nM. As to `Cc1c(-c2cccc3c(CCCOc4cccc5ccccc45)c(C(=O)O)[nH]c23)c(COc2ccc(B(O)O)cc2)nn1C`, in [3], the IC50 is more than 11000 nM. Still for that read-out and setting: to `Cc1c(-c2cccc3c(CCCOc4cccc5ccccc45)c(C(=O)O)[nH]c23)c(COc2ccc(B(O)O)c(C=O)c2)nn1C` belongs 460 nM. As to `Cc1c(-c2cccc3c(CCCOc4cccc5ccccc45)c(C(=O)O)n(C)c23)c(COc2ccc(B(O)O)c(C=O)c2)nn1C`, in test [3], half-maximal inhibition (IC50) was put at 75 nM.

With `N#CC1=C(C#N)c2ccc(N3CCSCC3)c3cccc(c23)C1=O`, the Ki in test [4] amounted to 310 nM; in test [5], 58 nM. On to `CC(C)COc1nc(Oc2ccccc2)ccc1C(=O)O`, for which the Ki in [6] was determined as 261000 nM. As for `O=C(Nc1ccccc1)C1=CN=c2s/c(=C\c3cn(Cc4ccccc4)c4ccccc34)c(=O)n2[C@@H]1c1ccccc1`, the values for the Ki in test [4], in test [5] and in test [7] were 1100 nM, 360 nM and 830 nM, respectively.

Turning to `COC(=O)C1=CN=c2s/c(=C\c3cn(Cc4ccccc4)c4ccccc34)c(=O)n2[C@H]1c1ccc(C(C)=O)cc1`, the Ki in test [4] was determined as 940 nM; in [5], 320 nM; in [7], 280 nM. As for `N#CC1=C(NCCC(=O)CCCCC(=O)NCCCCCNc2cccc3c2C(=O)N(C2CCC(=O)NC2=O)C3=O)c2ccc(Sc3ccc(Br)cc3)c3cccc(c23)C1=O` (centres undefined), the IC50 in [8] was 780 nM; in [9] it was 540 nM. For the molecule `CC1=C[C@@H](/C=C(\C)c2ccc(C(=O)O)cc2)[C@]2(C(=O)O)C=C[C@@H](CCOC(=O)c3ccc(Oc4cccnc4)cc3)C[C@@H]2C1`, the Ki is 106 nM in test [5] and 153 nM in test [6]. For the molecule `CCOC(=O)C1=CN=c2s/c(=C\c3cn(Cc4ccccc4)c4ccccc34)c(=O)n2[C@H]1c1cccc(C(C)=O)c1`, the results for the Ki in test [4], in test [5] and in test [7] were 590 nM, 740 nM and 340 nM, respectively. `C=C(c1ccc(S(=O)(=O)Nc2cc(-c3ccc(C)c4ccccc34)ccc2C(=O)O)cc1)C(C)C` yielded an IC50 in test [1] of 80 nM. As for `N#CC1=C(NCCC(=O)CCCCC(=O)NCCOCCOCCNc2cccc3c2C(=O)N(C2CCC(=O)NC2=O)C3=O)c2ccc(Sc3ccc(Br)cc3)c3cccc(c23)C1=O` (centres undefined), the IC50 in test [8] came to 11800 nM; in [9], 4940 nM. As to `O=C(Nc1ccccc1)C1=CN=c2s/c(=C\c3cn(Cc4ccccc4)c4ccccc34)c(=O)n2[C@H]1c1ccccc1`, the Ki in [4] stood at 810 nM; in test [5], 2200 nM; in test [7], 1100 nM. In the case of `CCOC(=O)C1=CN=c2s/c(=C\c3cn(Cc4ccccc4)c4ccccc34)c(=O)n2[C@@H]1c1cccc(C(C)=O)c1`, the results for the Ki in [4], in [5] and in test [7] were 540 nM, 290 nM and 290 nM, respectively. In the case of `COC(=O)C1=CN=c2s/c(=C\c3cn(Cc4ccccc4)c4ccccc34)c(=O)n2[C@@H]1c1ccc(C(C)=O)cc1`, the figures for the Ki in [4], in [5] and in [7] were 1000 nM, 420 nM and 550 nM, respectively. On to `Cc1cc(OCCCS(=O)(=O)N2CC(C(=O)O)Cc3ccccc32)cc(C)c1Cl` (centres undefined), for which the Ki in test [6] worked out at 7770 nM.
